Experimental data reported in patent US4857513A, “Diphosphonic acid compounds, processes for the preparation thereof and pharmaceutical composition comprising the same” (Fujisiwa Pharmaceutical Co., Ltd., priority 1986, dated 1989).
Structures can show the parent of a compound that is named as a salt.

Tested on: Neonatal calvaria (hPTH (1-34)-treated)
Assay: Inhibition of hPTH (1-34)-stimulated bone resorption in cultured neonatal rat calvaria (calcium accumulation in medium at 6 days)
Format: cell-based, rat (Wistar)
Settings: 144 h, hPTH (1-34) 1×10^-8 M, 37° C.; for inhibition at 1 µM: Dose 1 × 10^-6 M; for inhibition at 0.1 µM: Dose 1 × 10^-7 M
Experimental: Neonatal calvaria were dissected aseptically from 1-2 day old rat (Wistar), washed in Dulbecco's modified eagle's medium and divided along the sagittal suture. The calvaria halves were pooled and randomized in the different groups. The calvaria halves were cultured separately as free-floating bones in multi-well dishes containing a 2 ml of Dulbecco's modified eagle's medium, with 10% heat-inactivated (56° C. for 1 hr) fetal calf serum. Treatment of hPTH (1-34) (1×10^-8 M) and the Test Compound (1×10^-7 or 1×10^-6 M) was begun at zero time. All incubations were performed at 37° C., under an atmosphere of 95% air and 5% CO2 for 6 days. Bone resporption was determined by measuring the accumulation of calcium in the medium at 6 days. The concentration of total calcium in culture medium was measured by OCPC method with a spectrophotometer (Hitachi model U-3200, Tokyo, Japan).
As comparative data, similar tests were conducted using culture medium with hPTH (1×10^-8 M) only, and culture medium without both hPTH and Test Compound.
Test results were represented in terms of percentage of inhibition calculated by the following formula: [formula] CD : the concentration of total calcium in culture medium treated with both hPTH and Test Compound
CO : the concentration of total calcium in control culture medium without both hPTH and Test Compound
CP : the concentration of total calcium in culture medium treated with hPTH only

SMILES | inhibition at 1 µM [%] | inhibition at 0.1 µM [%]
O=P(O)(O)C(C(=S)Nc1ccccc1)P(=O)(O)O [Test Compound (a), Tris(tert-butylamine) salt of [N-(phenyl)thiocarbamoylmethylene]bis(phosphonic acid)] | 66.3 | 54.3
O=C(Nc1ccc(Cl)cc1)C(P(=O)(O)O)P(=O)(O)O [Test Compound (b), Tris(tert-butylamine) salt of [N-(4-chlorophenyl)carbamoylmethylene]bis(phosphonic acid)] | 56.9 | 46.6
O=P(O)(O)C(C(=S)Nc1ccc(Cl)cc1)P(=O)(O)O [Test Compound (c), Tris(tert-butylamine)salt of [N-(4-chlorophenyl)thiocarbamoylmethylene]bis(phosphonic acid)] | 57 | –
O=P(O)(O)C(C(=S)Nc1cc2ccccc2s1)P(=O)(O)O [Test Compound (d), Disodium salt of [N-(2-benzo[b]thienyl)thiocarbamoylmethylene]bis(phosphonic acid)] | 59.7 | –
O=P(O)(O)C(C(=S)Nc1ccc(C(F)(F)F)cc1)P(=O)(O)O [Test Compound (e), Disodium salt of [N-(4-trifluoromethylphenyl)thiocarbamoylmethylene]bis(phosphonic acid)] | 65.9 | –
O=P(O)(O)C(C(=S)Nc1cccc(C(F)(F)F)c1)P(=O)(O)O [Test Compound (f), Disodium salt of [N-(3-trifluoromethylphenyl)thiocarbamoylmethylene]bis(phosphonic acid)] | 68.9 | –
O=P(O)(O)C(C(=S)Nc1ccc(Cl)c(C(F)(F)F)c1)P(=O)(O)O [Test Compound (g), Disodium salt of [N-(4-chloro-3-trifluoromethylphenyl)thiocarbamoylmethylene]bis(phosphonicacid)] | 112 | –
COc1ccc(NC(=S)C(P(=O)(O)O)P(=O)(O)O)cc1C(F)(F)F [Test Compound (h), Disodium salt of [N-(4-methoxy-3-trifluoromethylphenyl)thiocarbamoylmethylene]bis(phosphonic acid)] | 77.7 | –
O=C(NC(P(=O)(O)O)P(=O)(O)O)c1cc2ccccc2s1 [Test Compound (i), Bis(tert-butylamine)salt of [(2-benzo[b]thiophenecarboxamido)methylene]bis(phosphonic acid)] | – | 45
O=C(NC(P(=O)(O)O)P(=O)(O)O)c1ccc2ccccc2n1 [Test Compound (j), Tris(tert-butylamine)salt of [(2-quinolinecarboxamido)methylene]bis(phosphonic acid)] | 53.8 | 46.9
O=P(O)(O)C(NS(=O)(=O)c1ccc(Cl)cc1)P(=O)(O)O [Test Compound (k), Disodium salt of [(4-chlorophenyl)sulfonylaminomethylene]bis(phosphonicacid)] | 71 | –
CS(=O)(=O)Nc1cccc(NC(=S)C(P(=O)(O)O)P(=O)(O)O)c1 [Test Compound (l), Disodium salt of [N-(3-mesylaminophenyl)thiocarbamoylmethylene]bis(phosphonic acid)] | 52.4 | –
